Consider two compounds from ChEMBL document CHEMBL5356947, “Mitochondria-targeted biotin-conjugated BODIPYs for cancer imaging and therapy” (RSC Med Chem, 2023).

For data set [1], the system named is MDA-MB-231. Put plainly: Cell cycle arrest in human MDA-MB-231 cells assessed as accumulation of cells at G1 phase incubated for 24 hrs by RNase A/PI staining based flow cytometric analysis relative to control. It counts as functional.
Data set [2] deals with MDA-MB-231. The data set is described as follows: Induction of apoptosis in human MDA-MB-231 cells assessed as late apoptotic cells at 60 nM preincubated with compound for 24 hrs followed by 540 nm light irradiation for 1 hrs by Annexin V-FITC/PI staining based flow cytometric analysis (reference value: 17.1%). It counts as functional. Conditions: time 25 hrs. A general note: In flow cytometry, cells or beads pass a laser one at a time; call rule not given here.

Data set [3] can be described thus: Emission property of the compound by fluorescence spectrophotometer analysis. It counts as physicochemical.
A short description of data set [4]: Fluorescence property of the compound assessed as fluorescence quantum yield in EtOH. It counts as physicochemical.
Data set [5] relates to MDA-MB-231. The data set is described as follows: Induction of apoptosis in human MDA-MB-231 cells assessed as necrotic cells at 30 nM incubated for 24 hrs under dark condition by Annexin V-FITC/PI staining based flow cytometric analysis relative to control. It counts as functional.
Data set [6] concerns MDA-MB-231. The data set is described as follows: Cell cycle arrest in human MDA-MB-231 cells assessed as accumulation of cells at G2/M phase incubated for 24 hrs by RNase A/PI staining based flow cytometric analysis relative to control. It counts as functional.
In data set [7] the test system is MDA-MB-231. Put plainly: Induction of apoptosis in human MDA-MB-231 cells assessed as late apoptotic cells at 30 nM preincubated with compound for 24 hrs followed by 540 nm light irradiation for 1 hrs by Annexin V-FITC/PI staining based flow cytometric analysis (reference value: 17.1%). It counts as functional. The following applies: time 25 hrs.
The test system of data set [8] is HT-29. Put plainly: Photocytotoxicity against human HT-29 cells assessed as inhibition of cell growth incubated for 24 hrs by MTT assay. It counts as functional, cell-based. Conditions: HT-29, 24 h.
Data set [9] relates to MDA-MB-231. Put plainly: Cell cycle arrest in human MDA-MB-231 cells assessed as accumulation of cells at G1 phase at 60 nM preincubated with compound for 15 mins followed by light irradiation and measured after 3 to 24 hrs by RNase A/PI staining based flow cytometric analysis (reference value: 65.7%). It counts as functional. The following applies: time 195-1455 min.
The subject of data set [10] is MDA-MB-231. Put plainly: Photocytotoxicity against human MDA-MB-231 cells assessed as inhibition of cell growth incubated for 24 hrs by MTT assay. The following applies: MDA-MB-231, 24 h. It counts as functional, cell-based. Background: Tetrazolium assays rely on reduction of a dye to a coloured formazan, in cell work by metabolically active cells.
The test system of data set [11] is MDA-MB-231. The data set is described as follows: Induction of apoptosis in human MDA-MB-231 cells assessed as early apoptotic cells at 30 nM incubated for 24 hrs under dark condition by Annexin V-FITC/PI staining based flow cytometric analysis relative to control. It counts as functional.
For data set [12], the system named is MDA-MB-231. The data set is described as follows: Induction of oxidative stress on human MDA-MB-231 cells assessed as increase in ROS population incubated for 24 hrs under dark condition by CM-H2DCFDA staining based analysis relative to control. It counts as functional.
The subject of data set [13] is MCF7. Put plainly: Photocytotoxicity against human MCF7 cells assessed as inhibition of cell growth incubated for 24 hrs by MTT assay. It counts as functional, cell-based. Conditions: MCF7, 24 h.
Data set [14] deals with MDA-MB-231. The data set is described as follows: Cell cycle arrest in human MDA-MB-231 cells assessed as accumulation of cells at G1 phase at 30 nM preincubated with compound for 15 mins followed by light irradiation and measured after 3 to 24 hrs by RNase A/PI staining based flow cytometric analysis (reference value: 65.7%). It counts as functional. The following applies: time 195-1455 min.

Data set [15] in a line: Drug localization in mitochondria of human MDA-MB-231 cells incubated for 1 hrs by Mitotracker deep red/Hoechst staining based confocal microscopic analysis. It counts as ADME. Conditions: mda-mb-231, 1 h.
Data set [16] concerns MDA-MB-231. Put plainly: Cell cycle arrest in human MDA-MB-231 cells assessed as accumulation of cells at S phase incubated for 24 hrs by RNase A/PI staining based flow cytometric analysis relative to control. It counts as functional.
For data set [17], the system named is MDA-MB-231. Put plainly: Induction of apoptosis in human MDA-MB-231 cells assessed as necrotic cells at 60 nM preincubated with compound for 24 hrs followed by 540 nm light irradiation for 1 hrs by Annexin V-FITC/PI staining based flow cytometric analysis (reference value: 2.7%). It counts as functional. The following applies: time 25 hrs.
Data set [18] has as its system MDA-MB-231. The data set is described as follows: Cell cycle arrest in human MDA-MB-231 cells assessed as accumulation of cells at G2/M phase at 30 nM preincubated with compound for 15 mins followed by light irradiation and measured after 3 to 24 hrs by RNase A/PI staining based flow cytometric analysis (reference value: 12.9%). It counts as functional. The following applies: time 195-1455 min.

A short description of data set [19]: Absorption property of the compound assessed as decay lifetime. It counts as physicochemical.
Data set [20] in a line: Absorption property of the compound by UV-vis spectrophotometer. It counts as physicochemical.
Data set [21] deals with MDA-MB-231. The data set is described as follows: Cell cycle arrest in human MDA-MB-231 cells assessed as accumulation of cells at S phase at 60 nM preincubated with compound for 15 mins followed by light irradiation and measured after 3 to 24 hrs by RNase A/PI staining based flow cytometric analysis (reference value: 16.4%). Conditions: time 195-1455 min. It counts as functional.

In data set [22] the test system is MDA-MB-231. Put plainly: Cell cycle arrest in human MDA-MB-231 cells assessed as accumulation of cells at S phase at 30 nM preincubated with compound for 15 mins followed by light irradiation and measured after 3 to 24 hrs by RNase A/PI staining based flow cytometric analysis (reference value: 16.4%). It counts as functional. Conditions: time 195-1455 min.
In data set [23] the test system is MDA-MB-231. The data set is described as follows: Induction of apoptosis in human MDA-MB-231 cells assessed as early apoptotic cells at 30 nM preincubated with compound for 24 hrs followed by 540 nm light irradiation for 1 hrs by Annexin V-FITC/PI staining based flow cytometric analysis (reference value: 19.2%). Conditions: time 25 hrs. It counts as functional.

Data set [24] can be described thus: Photocytotoxicity against human MCF-10A cells assessed as inhibition of cell growth incubated for 24 hrs by MTT assay. It counts as toxicity, cell-based.
Data set [25] has as its system MDA-MB-231. The data set is described as follows: Induction of apoptosis in human MDA-MB-231 cells assessed as early apoptotic cells at 60 nM preincubated with compound for 24 hrs followed by 540 nm light irradiation for 1 hrs by Annexin V-FITC/PI staining based flow cytometric analysis (reference value: 19.2%). It counts as functional. The following applies: time 25 hrs.

Data set [26] is described as follows: Photosensitizing ability of the compound in MeOH assessed as singlet oxygen generation at 408 nm measured upto 120 sec by DPBF based assay. It counts as functional.
For data set [27], the system named is MDA-MB-231. Put plainly: Induction of oxidative stress on human MDA-MB-231 cells assessed as increase in ROS population at 60 nM preincubated with compound for 24 hrs followed by 540 nm light irradiation for 1 hrs by CM-H2DCFDA staining based analysis (reference value: 2.5%). It counts as functional. The following applies: time 25 hrs.
The subject of data set [28] is MDA-MB-231. Put plainly: Induction of apoptosis in human MDA-MB-231 cells assessed as necrotic cells at 30 nM preincubated with compound for 24 hrs followed by 540 nm light irradiation for 1 hrs by Annexin V-FITC/PI staining based flow cytometric analysis (reference value: 2.7%). It counts as functional. Conditions: time 25 hrs.
Data set [29] deals with MDA-MB-231. The data set is described as follows: Induction of apoptosis in human MDA-MB-231 cells assessed as late apoptotic cells at 30 nM incubated for 24 hrs under dark condition by Annexin V-FITC/PI staining based flow cytometric analysis relative to control. It counts as functional.
The test system of data set [30] is MDA-MB-231. Put plainly: Cell cycle arrest in human MDA-MB-231 cells assessed as accumulation of cells at G2/M phase at 60 nM preincubated with compound for 15 mins followed by light irradiation and measured after 3 to 24 hrs by RNase A/PI staining based flow cytometric analysis (reference value: 12.9%). It counts as functional. The following applies: time 195-1455 min.

Data set [31] is described as follows: Absorption property of the compound assessed as molar extinction co-effecient by UV-vis spectrophotometer. It counts as physicochemical.
The subject of data set [32] is HCT-116. The data set is described as follows: Photocytotoxicity against human HCT-116 cells assessed as inhibition of cell growth incubated for 24 hrs by MTT assay. It counts as functional, cell-based. The following applies: HCT-116, 24 h.
Data set [33] can be described thus: Absorption property of the compound assessed as triplet quantum yield by UV-vis spectrophotometer. It counts as physicochemical.
Data set [34] deals with MDA-MB-231. The data set is described as follows: Induction of oxidative stress on human MDA-MB-231 cells assessed as increase in ROS population at 30 nM preincubated with compound for 24 hrs followed by 540 nm light irradiation for 1 hrs by CM-H2DCFDA staining based analysis (reference value: 2.5%). It counts as functional. Conditions: time 25 hrs.

On to `CC1=C(I)C(C)=[N+]2C1=C(c1ccc(OCc3cn(CCOCCOCCOCCOCCNC(=O)CCCCC4SCC5NC(=O)NC54)nn3)cc1)c1c(C)c(I)c(C)n1[B-]2(F)F` (stereo not given), for which the Activity in data set [1] is reported as 63.3%; in data set [2], 34.1%; in data set [3] it was 549 nm; in data set [4], 0.039; in data set [5] it was 5.8%; in data set [6] it was 13.3%. Also, the Activity in data set [7] is 11.2%; in [9], 58.7%; in data set [11] it was 5.6%; in data set [12] it was 5.9%; in [14], 63%; in data set [16] it was 18.1%. In addition, the Activity in data set [17] is 40.1%; in [18] it was 19.2%; in [20], 533 nm; in [21], 15.5%; in data set [22], 14.6%; in data set [23], 10.5%. Also, the Activity amounted to 4.5% in [25]; 0.34 in data set [26]; 92.4% in [27]; 12.1% in data set [28]; 11.5% in data set [29]; 22% in data set [30]. Further, the figures for the Activity in data set [31], in data set [33] and in [34] were 91000 M⁻¹ cm⁻¹, 0.44 and 92.3%, respectively. The half-inhibitory concentration (IC50) was determined as 88.2 nM in data set [8], 52.2 nM in data set [10], 54.1 nM in data set [13] and 74.9 nM in [32]. The Drug uptake entry in data set [15] was “Active”. Moreover, the Time in data set [19] is reported as 2.5 microsec. For the same compound, the half-maximal inhibitory concentration (IC50) at 24 h in data set [24] was determined as 177 nM.
On to `CC/N=c1/cc2oc3cc(NCC)c(C)cc3c(-c3ccccc3C(=O)OCC)c-2cc1C.Cl`, for which the Activity in data set [4] came to 0.95.

For orientation: IC50 means the concentration needed to halve the response being measured.
